Counter-ions that a name gives are not always drawn.
Assays:
S1P1 [1] = target: T1, S1P1 (Homo sapiens, UniProt P21453); test: Receptor binding assay, [33P]sphingosine 1-phosphate, membranes, WGA SPA beads; conditions: membranes from CHO cells expressing S1P1; 25 pM [33P]S1P; 60 min RT
T1 construct: expressed in transfected cells; host or cells: CHO cells (membranes)
Procedure: Receptor binding assay: Membranes were prepared from CHO cells expressing S1P1 or S1P3 for use in ligand and […] binding studies. Cells were suspended in 50 mM TRIS, pH 7.4, 2 mM EDTA, 250 mM Sucrose (buffer A) and 1× Complete protease inhibitor cocktail (Roche), and disrupted at 4° C. by N2 decompression using a cell disruption bomb (Parr Instrument). Following centrifugation at 1000 RPM for 10 min at 4° C., the supernatant was suspended in buffer A and centrifuged again at 19000 RPM for 60 min at 4° C. The pellet was then suspended in 10 mM HEPES, pH 7.4, 1 mM EDTA, 250 mM Sucrose (Buffer B), and 1× Complete EDTA-free protease inhibitor cocktail and homogenized using a potter. Membranes were flash frozen in liquid N2 and stored at −80° C. [33P]sphingosine 1-phosphate (3000 Ci/mmol; American Radiolabeled Chemicals, Inc.) was added to test compounds in DMSO. Membranes and WGA SPA beads (GE Healthcare) were added to give a final volume of 100 μl in 96-well plates with assay concentrations of 25 pM or 10 pM [33P]sphingosine 1-phosphate (respectively for S1P1 or S1P3), 50 mM HEPES, pH 7.5, 5 mM MgCl2, 100 mM NaCl, 0.4% fatty acid-free BSA, 1-5 μg/well of proteins and 100 μg/well of WGA SPA beads. Binding was performed for 60 min at RT on a shaker and bound radioactivity was measured on a PerkinElmer 1450 MicroBeta counter. Specific binding was calculated by subtracting remaining radioactivity in the presence of 1000-fold excess of unlabeled S1P. Binding data were analyzed using the GraphPad Prism program.

S1P1 [2] = target: T1, S1P1; test: 35S-GTPγS binding, S1P1 membranes; format: biochemical; conditions: membranes from CHO cells expressing S1P1; 60 min 30° C.
Procedure, shortened: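 CHO-cell membranes expressing S1P1 or S1P3 (1-10 μg) incubated with compounds in 20 mM HEPES pH 7.4, 10 mM MgCl2, 140 mM NaCl, saponin, 0.2% BSA, 1.7 μM GDP and [35S]-GTPγS (20 μl of 1.5 nM added), 60 min at 30° C. Bound radioactivity expressed as % of S1P activation.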

T1 sequence (P21453 whole entry, species assumed): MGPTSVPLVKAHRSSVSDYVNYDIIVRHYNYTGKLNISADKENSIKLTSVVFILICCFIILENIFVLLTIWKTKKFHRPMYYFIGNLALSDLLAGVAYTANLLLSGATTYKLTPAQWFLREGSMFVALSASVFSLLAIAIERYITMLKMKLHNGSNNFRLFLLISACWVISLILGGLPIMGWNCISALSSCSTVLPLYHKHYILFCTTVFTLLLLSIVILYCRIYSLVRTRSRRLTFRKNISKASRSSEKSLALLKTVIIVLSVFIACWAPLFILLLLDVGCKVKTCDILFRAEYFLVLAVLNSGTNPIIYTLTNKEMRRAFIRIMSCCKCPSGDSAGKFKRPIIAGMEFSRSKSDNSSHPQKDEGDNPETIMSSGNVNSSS

| Ki (S1P1 [1]) [nM] | EC50 (S1P1 [2]) [nM] | Compound |
| --- | --- | --- |
| 7 | 5 | COCCN(C)Cc1cccc(-c2noc(-c3ccc(-c4ccccc4C)c(COC)c3)n2)c1 [Example 185, 2-methoxy-N-(3-{5-[2-(methoxymethyl)-2′-methylbiphenyl-4-yl]-1,2,4-oxadiazol-3-yl}benzyl)-N-methylethanamine, Hydrochloride salt] |
| 7 | 2.1 | COCc1cc(-c2nc(-c3ccc(CO)cc3)no2)ccc1-c1ccccc1C [Example 191, (4-{5-[2-(methoxymethyl)-2′-methylbiphenyl-4-yl]-1,2,4-oxadiazol-3-yl}phenyl)methanol] |
| 2 | 6 | COCc1cc(-c2nc(-c3ccc(C(=O)NCCC#N)c(F)c3)no2)ccc1-c1ccccc1C [Example 173, N-(2-cyanoethyl)-2-fluoro-{5-[2-(methoxymethyl)-2′-methylbiphenyl-4-yl]-1,2,4-oxadiazol-3-yl}benzamide] |
|  | 2.9 | COCc1cc(-c2nc(-c3cccc(COCC(=O)OC)c3)no2)ccc1-c1ccccc1C [Example 159, Methyl [(3-{5-[2-(methoxymethyl)-2′-methylbiphenyl-4-yl]-1,2,4-oxadiazol-3-yl}benzyl)oxy]acetate] |
|  | 10 | COCc1cc(-c2nc(-c3ccc(F)c(CN(C)CC(=O)O)c3)no2)ccc1OC(C)C [Example 158, N-(2-fluoro-5-{5-[4-isopropoxy-3-(methoxymethyl)phenyl]-1,2,4-oxadiazol-3-yl}benzyl)-N-methylglycine, Hydrochloride salt] |
|  | 2 | COCc1cc(-c2nc(-c3cccc(CNCCO)c3)no2)ccc1-c1ccccc1C [Example 187, 2-[(3-{5-[2-(methoxymethyl)-2′-methylbiphenyl-4-yl]-1,2,4-oxadiazol-3-yl}benzyl)amino]ethanol, Hydrochloride salt] |
|  | 1.8 | COCc1cc(-c2nc(-c3cccc(COCCO)c3)no2)ccc1-c1ccccc1C [Example 193, 2-[(3-{5-[2-(methoxymethyl)-2′-methylbiphenyl-4-yl]-1,2,4-oxadiazol-3-yl}benzyl)oxy]ethanol] |
|  | 4 | COCCNCc1cccc(-c2noc(-c3ccc(-c4ccccc4C)c(COC)c3)n2)c1 [Example 188, 2-methoxy-N-(3-{5-[2-(methoxymethyl)-2′-methylbiphenyl-4-yl]-1,2,4-oxadiazol-3-yl}benzyl)ethanamine, Hydrochloride salt] |

The next lines start with the molecule.

| Compound | Ki (S1P1 [1]) [nM] | EC50 (S1P1 [2]) [nM] |
| --- | --- | --- |
| CCC(C)Oc1ncc(-c2nc(-c3ccc(OCC(=O)O)c(F)c3)no2)cc1Cl (centres unmarked) [Example 50, {4-[5-(6-sec-butoxy-5-chloropyridin-3-yl)-1,2,4-oxadiazol-3-yl]-2-fluorophenoxy}acetic acid] | 50 | 261 |
| CC(C)COc1ncc(-c2nc(-c3ccc(C(=O)O)c(F)c3)no2)cc1Cl [Example 34, 4-[5-(5-chloro-6-isobutoxypyridin-3-yl)-1,2,4-oxadiazol-3-yl]-2-fluorobenzoic acid] | 2930 | 4990 |
| O=C(O)c1ccc(-c2noc(-c3ccc(-c4ccccc4C(F)(F)F)cc3)n2)cc1F [Example 1, 2-fluoro-4-{5-[2′-(trifluoromethyl)biphenyl-4-yl]-1,2,4-oxadiazol-3-yl}benzoic acid] | 2470 |  |
| Cc1cccc(C)c1-c1ccc(-c2nc(-c3ccc(C(=O)O)c(F)c3)no2)cc1 [Example 3, 4-[5-(2′,6′-dimethylbiphenyl-4-yl)-1,2,4-oxadiazol-3-yl]-2-fluorobenzoic acid] | 2600 |  |
| COCc1cc(-c2nc(-c3ccc(C(=O)O)c(F)c3)no2)ccc1-c1ccccc1C [Example 35, 2-fluoro-4-{5-[2-(methoxymethyl)-2′-methylbiphenyl-4-yl]-1,2,4-oxadiazol-3-yl}benzoic acid] | 10 | 30 |
| COCc1cc(-c2nc(-c3ccc(C(=O)NC(C)(C)C(=O)O)c(F)c3)no2)ccc1-c1ccccc1C [Example 129, N-(2-fluoro-4-{5-[2-(methoxymethyl)-2′-methylbiphenyl-4-yl]-1,2,4-oxadiazol-3-yl}benzoyl)-2-methylalanine] |  | 40 |
| CNCc1cc(-c2nc(-c3ccc(C(=O)O)c(F)c3)no2)ccc1-c1ccccc1C [Example 77, 2-fluoro-4-(5-{2′-methyl-2-[(methylamino)methyl]biphenyl-4-yl}-1,2,4-oxadiazol-3-yl)benzoic acid, Hydrochloride salt] |  | 2900 |
| CCCN(CC(C)C)c1ccc(-c2nc(-c3ccc(C(=O)O)c(F)c3)no2)cc1NS(C)(=O)=O [Example 66, 2-fluoro-4-(5-{4-[isobutyl(propyl)amino]-3-[(methylsulfonyl)amino]phenyl}-1,2,4-oxadiazol-3-yl)benzoic acid] |  | 10000 |
| COCCOc1cc(-c2nc(-c3ccc(C(=O)O)c(F)c3)no2)ccc1-c1ccccc1C [Example 103, 2-fluoro-4-{5-[2-(2-methoxyethoxy)-2′-methylbiphenyl-4-yl]-1,2,4-oxadiazol-3-yl}benzoic acid] |  | 257 |
| COCc1cc(-c2nc(-c3ccc(C(=O)OC)c(F)c3)no2)ccc1N1CCCCC1C (centres unmarked) [Example 113, methyl 2-fluoro-4-{5-[3-(methoxymethyl)-4-(2-methylpiperidin-1-yl)phenyl]-1,2,4-oxadiazol-3-yl}benzoate] |  | 485 |
| COCc1cc(-c2nc(-c3cc(F)c(C(=O)O)cc3OC)no2)ccc1-c1ccccc1C [Example 112, 2-fluoro-5-methoxy-4-{5-[2-(methoxymethyl)-2′-methylbiphenyl-4-yl]-1,2,4-oxadiazol-3-yl}benzoic acid] |  | 102 |
| CCOC(=O)CC(C)NC(=O)c1ccc(-c2noc(-c3ccc(-c4ccccc4C)c(COC)c3)n2)cc1F (centres unmarked) [Example 121, Ethyl 3-[(2-fluoro-4-{5-[2-(methoxymethyl)-2′-methylbiphenyl-4-yl]-1,2,4-oxadiazol-3-yl}benzoyl)amino]butanoate] |  | 281 |
| Cc1ccccc1-c1ccc(-c2nc(-c3ccc(O)c(C(=O)O)c3)no2)cc1C [Example 43, 5-[5-(2,2′-dimethylbiphenyl-4-yl)-1,2,4-oxadiazol-3-yl]-2-hydroxybenzoic acid] |  | 4360 |
| Cc1ccccc1-c1ccc(-c2nc(-c3ccc(C(=O)O)c(F)c3)no2)cc1OCC1CC1 [Example 105, 4-{5-[2-(cyclopropylmethoxy)-2′-methylbiphenyl-4-yl]-1,2,4-oxadiazol-3-yl}-2-fluorobenzoic acid] |  | 103 |
| CC(C)Oc1ncc(-c2nc(-c3ccc(C(=O)O)c(F)c3)no2)cc1Cl [Example 36, 4-[5-(5-chloro-6-isopropoxypyridin-3-yl)-1,2,4-oxadiazol-3-yl]-2-fluorobenzoic acid] | 530 |  |
| Cc1cc(-c2nc(-c3ccc(C(=O)O)c(F)c3)no2)ccc1-c1ccccc1 [Example 6, 2-fluoro-4-[5-(2-methylbiphenyl-4-yl)-1,2,4-oxadiazol-3-yl]benzoic acid] |  | 2920 |
| Cc1ccccc1-c1ccc(-c2nc(-c3ccc(C(=O)O)c(F)c3)no2)cc1COCC1CC1 [Example 61, 4-(5-{2-[(cyclopropylmethoxy)methyl]-2′-methylbiphenyl-4-yl}-1,2,4-oxadiazol-3-yl)-2-fluorobenzoic acid] |  | 2240 |
| O=C(O)c1ccc(-c2noc(-c3ccc(N4CCOCC4)c(C(F)(F)F)c3)n2)cc1F [Example 17, 2-fluoro-4-{5-[4-morpholin-4-yl-3-(trifluoromethyl)phenyl]-1,2,4-oxadiazol-3-yl}benzoic acid] |  | 3450 |

— patent US8202865B2, “Oxadiazole derivatives” (Merck Serono SA, priority 2007, dated 2012)
